Experimental findings from the OPERA property sets (Mansouri et al. 2018) are described below.

Conditions in the first series: not given
`c1ccc2c(c1)c1ccccc1c1ccccc21` returned a boiling point of 425 °C, a log10 biodegradation half-life (days) of 2.58, a log10 vapour pressure (mmHg) of -7.68 and a melting point of 199 °C.
In turn, `CCC(C(N)=O)n1nnc2ccccc21` (centres undefined) showed a melting point of 143 °C.
As for `CN(C)O`, the log10 vapour pressure (mmHg) was 1.33 and the melting point worked out at 108 °C.
As to `c1ccc(COc2ccc3[nH]ccc3c2)cc1`, the melting point is 102 °C.
Take `BrC=Cc1ccccc1`: the melting point was determined as 7 °C and the ready biodegradability result is reported as “not readily biodegradable”.
`Cc1ccco1`: the boiling point came out at 65 °C, the log10 vapour pressure (mmHg) came to 2.19 and the melting point was -87.5 °C.
As for `FCC(F)F`, the boiling point came to 5 °C and the melting point is -84 °C.
The compound `COC1[C@@H](O[C@@H]2O[C@H](C)[C@@H](O[C@H]3C[C@@](C)(O)[C@H](OC(=O)CC(C)C)[C@H](C)O3)[C@H](N(C)C)[C@H]2O)[C@@H](CC=O)C[C@@H](C)[C@@H](O)C=CC=CC[C@@H](C)OC(=O)C[C@H]1OC(C)=O` (some centres undefined) gave a melting point of 132 °C.
Consider `OCCN1CN(CCO)CN(CCO)C1`, for which the ready biodegradability entry is “readily biodegradable”.
Turning to `COc1cccc2c1C(=O)c1c(O)c3c(c(O)c1C2=O)C[C@@](O)(C(=O)CO)C[C@@H]3O[C@H]1C[C@H](N)[C@H](O)[C@H](C)O1`, the melting point was 230 °C.
The same measure, in the same setting: the figure for `O=C(CCNNC(=O)c1ccncc1)NCc1ccccc1` is 152 °C; for `CC(CC(=O)O)CC(=O)O` it is 87 °C.
With `Cc1ccc(C)o1`, the boiling point came out at 93.5 °C and the melting point was -62.8 °C.
Consider `CCCCCCCCCCCCCCCCCCCCCCCCCCCCCCCCCCCCCCCCCCCC`, for which the boiling point is 548 °C, the melting point was determined as 87.5 °C and the ready biodegradability entry is “readily biodegradable”.
On to `COC1=CC(=O)C=C(OC)C1=O`, for which the melting point was 256 °C.
Compound `Cc1cc(C)[nH]n1` returned a boiling point of 218 °C and a melting point of 108 °C.
Consider `CN1CCC2=C(C1)C(c1ccccc1)c1ccccc12` (centres undefined), for which the melting point was determined as 91 °C.
`CCOP(=S)(OCC)Oc1ccc2c3c(c(=O)oc2c1)CCCC3` registered a melting point of 88.2 °C.
Regarding `O=[N+]([O-])OC(CO)CO`, the boiling point was determined as 158 °C and the melting point stood at 54 °C.
Take `CC1CCS1` (centres undefined): the boiling point came out at 107 °C.
On the same count and under the same terms, the figure for `CC(=O)c1ccc(C)cc1C` is 228 °C.
`CCOc1ccccc1C=O` yielded a boiling point of 248 °C and a melting point of 21 °C.
For `Cc1cc(C(C)(C)C)c(C)cc1O` the same measures were 264 °C and 71.2 °C.
`CC1CCCCS1` (centres undefined) had a boiling point of 153 °C and a melting point of -58 °C.
Compound `ClC/C=C/CCl` returned a boiling point of 155 °C, a log10 vapour pressure (mmHg) of 0.574 and a melting point of -14.2 °C.
The compound `CCC(=O)N(CC)CC` registered a boiling point of 191 °C.
For the compound `C[C@@H]1C=Cc2ccccc21`, the boiling point stood at 199 °C.
As to `CC(C)(C)CC(C)(C)Nc1ncnc(N(CCCCCCNC2CC(C)(C)NC(C)(C)C2)C2CC(C)(C)NC(C)(C)C2)n1`, the melting point stood at 138 °C.
`CC(C)=CC=O` had a boiling point of 134 °C.
As to `CCOC(=O)/C=C/C(=O)OCC`, the ready biodegradability result is “readily biodegradable”.
Regarding `CCC#CCCC`, the boiling point was 107 °C and the melting point was -130 °C.
The compound `CCCCCCCCCCCCCCCCOCC(O)CO` (centres undefined) returned a melting point of 64 °C.
As for `BrC1CCC(Br)C(Br)CCC(Br)C(Br)CCC1Br` (centres undefined), the log10 vapour pressure (mmHg) was -6.33 and the ready biodegradability result is given as “not readily biodegradable”.
Take `O=Cc1ccccc1Br`: the boiling point is 230 °C and the melting point came out at 21.5 °C.
The compound `O=[N+]([O-])c1c(Cl)c(Cl)cc(Cl)c1Cl` had a boiling point of 304 °C, a log10 Koc (L/kg) of 4.05, a log10 vapour pressure (mmHg) of -2.74 and a melting point of 99.5 °C.
`Oc1ccc(C(F)(F)F)cc1` displayed a melting point of 46 °C.
For the compound `C=Cc1ccccc1C=C`, the ready biodegradability entry is “not readily biodegradable”.
Turning to `CCOC(=O)c1cccc(C)c1`, the boiling point worked out at 234 °C.
With `O=CC=CC=Cc1ccccc1`, the melting point was 42.5 °C.
With `Clc1ccc(-c2c(Cl)cccc2Cl)cc1`, the log10 Henry constant (atm·m³/mol) is -3.7 and the log10 Koa worked out at 7.72.
For the compound `CNC(=O)ON=C(SC)C(=O)N(C)C`, the log10 Koc (L/kg) was found to be 1 and the melting point is 101 °C.
In turn, `CCc1ccc(C)cc1` displayed a boiling point of 162 °C, a log10 biodegradation half-life (days) of 0.602, a log10 vapour pressure (mmHg) of 0.477 and a melting point of -62.3 °C.
Compound `CCCCNCCO` returned a boiling point of 199 °C and a melting point of -2 °C.
The matching figures for `C#CCCCC#C`: 112 °C and -85 °C.

Staying with this series, now noted: fish.
For `Nc1ccc(Cl)c(Cl)c1Cl`, the log10 BCF was 2 and the log10 biotransformation half-life (days) is -0.27.
`O=[N+]([O-])c1cc(Cl)ccc1Cl` yielded a log10 BCF of 2.05 and a log10 biotransformation half-life (days) of 0.56.
In turn, `Cc1cc(Cl)ccc1N` gave a log10 BCF of 1.54.
The compound `CC(C)(c1ccccc1)C(C)(C)c1ccccc1` gave a log10 biotransformation half-life (days) of 0.87.
`C[C@@H]1CCC[C@H](C)N1` gave a log10 BCF of 0.7.
For the compound `COC(=O)c1ccccc1C(=O)c1ccccc1`, the log10 BCF was determined as 1.15 and the log10 biotransformation half-life (days) was -1.3.
`c1ccc2c(c1)c1ccccc1c1ccccc21` registered a log10 biotransformation half-life (days) of -0.08.
Turning to `O=[N+]([O-])c1c(Cl)c(Cl)cc(Cl)c1Cl`, the log10 BCF was determined as 3.23 and the log10 biotransformation half-life (days) was 0.49.
As to `Clc1cc2oc3c(Cl)c(Cl)cc(Cl)c3c2c(Cl)c1Cl`, the log10 BCF is 3.2.
The compound `Clc1ccc(-c2c(Cl)cccc2Cl)cc1` registered a log10 biotransformation half-life (days) of 2.44.
